Laboratory results as given in US20090062351A1, “Benzoyl amino pyridyl carboxylic acid derivatives useful as glucokinase (glk) activators” (priority 2003, published 2009).

Assays:
[1] = Plasma levels following oral administration to rats; assay type: in vivo; conditions: rat, including both bound and free, normalised dose of 1 mg compound per kilogram body weight
Protocol: Planetary Milled compounds [15 mins, 500 rpm, 5 Zirconium Balls, in a Puluerisette 7 Mill (Glen Creston Ltd, Stanmore, Middlesex, UK)] were suspended in 0.5% HPMC Tween and dosed to High Fat Fed (Research Diets, D12451, ad lib feeding 14 days) Female Alderley Park Zucker or Alderley Park Wistar rats at rate of 5 mls/kg, at doses between 0.3 and 10 mg/kg by oral gavage.
Samples of plasma were obtained either by conscious blood sampling or terminal blood sampling as follows:
Conscious blood sampling (for compound level or blood chemistry)—Intravenous blood samples were taken from tail vein using 600 μl Starstedt Multivette (EDTA) and 22 G needle at the required time point. […]
The reconstituted samples were then analysed using high performance liquid chromatography with tandem mass spectrometry detection (HPLC-MS-MS)”. […]
The concentration of test samples was determined from the ratio of the peak height of the test sample to the peak height of the internal standard. The concentration of the test sample was calculated with reference to a standard curve relating the ratio to the concentration prepared by using known concentrations of test sample added to samples of rat plasma using (3-isopropoxy-5-benzyoxy-benzoyl)amino pyridine 3-carboxylic acid as an internal standard, treated as described above.

[2] = target: T1, glucokinase (GLK) (Homo sapiens, UniProt P35557); test: biochemical
T1 sequence (P35557 1-466 isoform P35557-2): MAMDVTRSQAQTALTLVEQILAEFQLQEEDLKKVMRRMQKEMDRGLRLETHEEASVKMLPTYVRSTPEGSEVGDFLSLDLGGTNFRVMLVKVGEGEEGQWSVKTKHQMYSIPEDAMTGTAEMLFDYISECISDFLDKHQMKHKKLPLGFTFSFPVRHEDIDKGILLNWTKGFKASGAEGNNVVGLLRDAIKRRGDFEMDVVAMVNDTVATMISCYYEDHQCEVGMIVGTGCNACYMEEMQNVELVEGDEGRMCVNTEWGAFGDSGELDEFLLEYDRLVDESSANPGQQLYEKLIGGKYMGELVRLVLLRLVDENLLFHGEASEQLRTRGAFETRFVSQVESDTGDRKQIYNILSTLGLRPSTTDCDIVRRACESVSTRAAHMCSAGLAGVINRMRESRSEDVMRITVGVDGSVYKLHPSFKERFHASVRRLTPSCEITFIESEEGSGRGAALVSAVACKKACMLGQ

[3] = Plasma protein binding by equilibrium dialysis; assay type: in vitro ADME; conditions: rat, 37° C., pH 7.4, read-out: % free in plasma
Protocol: The plasma protein binding of compounds was measured using the equilibrium dialysis technique (W. Lindner et al, J. Chromatography, 1996, 677, 1-28). Compound was dialysed at a concentration of 20 μM for 18 hours at 37° C. with plasma and isotonic phosphate buffer pH 7.4 (1 ml of each in the dialysis cell). A Spectrum® 20-cell equilibrium dialyser was used together with Teflon, semi-micro dialysis cells and Spectra/Por®2 membrane discs with a molecular weight cut off 12-14000 Dalton, 47 mm (supplied by PerBio Science UK Ltd, Tattenhall, Cheshire). Plasma and buffer samples are removed following dialysis and analysed using HPLCUV/MS (high performance liquid chromatography with UV and mass spec detection) to give the % free level in plasma.

COC[C@H](C)Oc1cc(OCC=C2CCCC2)cc(C(=O)Nc2ccc(C(=O)O)cn2)c1 [Example 2, 6-{[(3-[(2-cyclopentylideneethyl)oxy]-5-{[(1S)-1-methyl-2-(methyloxy)ethyl]oxy}phenyl)carbonyl]amino}pyridine-3-carboxylic acid]
Peak Blood levels [1]: 2.2 µM | EC50 [2]: 78 nM | fraction unbound at 18 h, 20 μM [3]: 0.0042
